In patent US20080269213A1, “8-Hydroxyquinoline compounds and methods thereof” (Wyeth, priority 2006, published 2008):
Like-named read-outs stand apart in the source and are kept apart here.

Assays:
[1] = target: T1, recombinant human Aggrecanase-2 Agg2-Phe628 (Homo sapiens, UniProt Q9UNA0); assay: Aggrecanase 2 enzyme fluorescence polarization assay; format: binding; design: recombinant human Aggrecanase-2, Agg2-Phe628 (41737 Da); This is a truncated form of full-length human aggrecanase-2; made in house
T1 sequence (Q9UNA0 262-628 limits assumed): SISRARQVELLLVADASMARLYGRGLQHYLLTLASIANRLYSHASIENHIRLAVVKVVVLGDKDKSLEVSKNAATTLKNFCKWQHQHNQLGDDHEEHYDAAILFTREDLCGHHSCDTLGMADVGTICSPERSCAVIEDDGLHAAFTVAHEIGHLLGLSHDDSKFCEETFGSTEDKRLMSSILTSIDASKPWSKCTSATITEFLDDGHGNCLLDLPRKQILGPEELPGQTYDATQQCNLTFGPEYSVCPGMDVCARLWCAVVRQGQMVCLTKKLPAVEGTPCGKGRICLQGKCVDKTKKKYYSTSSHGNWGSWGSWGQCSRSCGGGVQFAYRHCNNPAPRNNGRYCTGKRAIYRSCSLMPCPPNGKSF
Description: The fluorescence polarization assay is used to determine the dissociation constant of the enzyme:inhibitor complex (Ki) and the binding interaction mode (competitive, non-competitive or uncompetitive) of reversible inhibitors. The fluorescence polarization assay monitors the rotational motion of the fluorescent ligand. In the free state the fluorescent ligand has high rotational motion corresponding to a low polarization value and when fully bound to the protein, the fluorescent ligand has a lower rotational motion, corresponding to a higher polarization value. […]
Stock solutions of the fluorescent ligand are prepared in 100% DMSO and aliquots are stored at −80° C. The stock concentration was determined by a NMR ratio method, comparing the area under the control compound peak (TSP; trimethyl silyl proprionate sodium salt) to the area under a well-defined sample peak.
To determine the dissociation constant between Aggrecanase-2 and Compound C, saturation experiments were performed by adding various concentrations of aggrecanase to a constant concentration of Compound C (2 nM), in the assay buffer 50 mM HEPES-NaOH (pH 7.4), 100 mM NaCl, 5 mM CaCl2, 0.005% Brij-35. Anisotropy values were calculated and converted to fraction bound values as described in the data analysis section below. […] The equilibrium dissociation constant was determined to be 60+/−2.9 nM. […]

[2] = target: T1, recombinant human Aggrecanase-2 Agg2-Phe628; assay: Aggrecanase 2 in vitro enzyme assay (Agg-2 FRET, quenched fluorescent peptide substrate); format: biochemical; design: purified recombinant human Aggrecanase-2 Agg2-Phe628 (MW=41,737); This is a truncated form of full-length human aggrecanase-2; made in house; host or cells: CHO cells
How it was run: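 Kinetic fluorescence (λex 340, λem 420 nm) monitored over 40 min at 30 °C after adding 25 μM final Abz/Dnp brevican-based quenched peptide. Enzyme: recombinant truncated human Agg2-Phe628 from CHO, 0.5 μg/ml final, mixed with inhibitor first; buffer HEPES pH 7.5 with NaCl, CaCl2, CHAPS, glycerol; compounds in duplicate.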

[3] = target: T2, Agg-1 (Homo sapiens, UniProt O75173); assay: Agg-1 FRET assay; format: biochemical; conditions: for IC50: read-out: Agg1 IC50
T2 sequence (O75173 213-837): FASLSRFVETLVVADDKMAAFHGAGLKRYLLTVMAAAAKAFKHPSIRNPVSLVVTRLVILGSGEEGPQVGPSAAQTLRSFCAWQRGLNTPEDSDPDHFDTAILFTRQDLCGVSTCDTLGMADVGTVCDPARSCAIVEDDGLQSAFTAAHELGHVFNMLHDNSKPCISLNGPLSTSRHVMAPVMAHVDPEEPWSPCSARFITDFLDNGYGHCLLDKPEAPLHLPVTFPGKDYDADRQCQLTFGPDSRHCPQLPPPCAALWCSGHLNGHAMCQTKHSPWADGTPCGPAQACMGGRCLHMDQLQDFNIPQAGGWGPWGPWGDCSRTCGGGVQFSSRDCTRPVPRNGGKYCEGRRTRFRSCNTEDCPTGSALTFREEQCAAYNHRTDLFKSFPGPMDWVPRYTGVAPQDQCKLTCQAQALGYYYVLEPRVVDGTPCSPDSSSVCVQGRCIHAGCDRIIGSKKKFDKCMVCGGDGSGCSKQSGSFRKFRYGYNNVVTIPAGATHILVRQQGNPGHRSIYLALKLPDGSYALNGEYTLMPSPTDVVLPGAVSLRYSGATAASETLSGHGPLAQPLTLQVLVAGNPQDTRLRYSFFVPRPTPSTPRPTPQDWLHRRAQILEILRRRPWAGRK
Description: The Agg-1/Agg-2 FRET data for N-[(8-hydroxyquinolin-2-yl)(phenyl)methyl]-2-phenoxyacetamide and 2-{[(phenoxyacetyl)amino](phenyl)methyl}quinolin-8-yl phenoxyacetate is presented in Table 1.

Compound: CN([C@H](CCCCNC(=O)OC(C)(C)C)C(=O)NO)S(=O)(=O)c1ccc(OCc2ccccc2)cc1 [Compound B, reference compound]
- Ki ([1]; established value of positive control, read-out: Ki for rAgg-2): 0.039 µM
- IC50 ([2]; established value of positive control, read-out: IC50 for rAgg-2): 0.037 µM

Compound: CN([C@H](CCCCCNC(=O)c1ccc(-c2c3cc(F)c(=O)cc-3oc3cc(O)c(F)cc23)c(C(=O)O)c1)C(=O)NO)S(=O)(=O)c1ccc(OCc2ccccc2)cc1 [Compound C]
- Kd ([1]; saturation experiment, 2 nM ligand, read-out: equilibrium dissociation constant between Aggrecanase-2 and fluorescent ligand): 0.06 µM

Compound: O=C(COc1ccccc1)NC(c1cc(Cl)c2cccnc2c1O)c1cccc2cccnc12 (stereo not drawn) [N-[(5-chloro-8-hydroxyquinolin-7-yl)(quinolin-8-yl)methyl]-2-phenoxyacetamide]
- inhibition at 22 µM ([3]; @ 22000 nM, read-out: Agg1 %): 55%
- IC50 ([2]; read-out: Agg2 IC50): 2.2 µM

Compound: O=C(CNCc1ccncc1)NC(c1ccccc1)c1cc(Cl)c2cccnc2c1O (stereo not drawn) [Example 229, N[(5-chloro-8-hydroxyquinolin-7-yl)(phenyl)methyl]-N2-(pyridin-4-ylmethyl)glycinamide]
- IC50 [3]: > 67 µM
- Agg-2 FRET Median PCT INHIB ([2]; concentration not given): 29%
- IC50 ([2]; read-out: Agg2 IC50): > 11 µM

Compound: O=C(COc1ccccc1)NC(Cc1cc(Cl)c2cccnc2c1O)c1cccc(CN2CCCC2)c1 (stereo not drawn)
- inhibition at 200 µM ([3]; read-out: Agg-1 IC50 (μM) or % Inhibition): 56%
- IC50 ([2]; IC50, read-out: Agg-2 IC50 (μM) or % Inhibition): 20 µM

Compound: O=C(COc1ccccc1)NC(c1ccoc1)c1cc(Cl)c2cccnc2c1O (stereo not drawn) [N-[(5-chloro-8-hydroxyquinolin-7-yl)(3-furyl)methyl]-2-phenoxyacetamide]
- IC50 [3]: > 22 µM
- IC50 ([2]; read-out: Agg2 IC50): 3.46 µM
- IC50 ([2]; read-out: Agg-2 FRET Median IC50): 3.46 µM

Compound: Cc1ccc(-c2cccc(C(Cc3cc(Cl)c4cccnc4c3O)NC(=O)COCc3ccccc3)c2)s1 (stereo not drawn)
- inhibition at 66.7 µM ([3]; % inhibition @ 66.7 μM, read-out: Agg-1 IC50 (μM) or % Inhibition): 48%
- inhibition at 22 µM ([2]; read-out: Agg-2 IC50 (μM) or % Inhibition): 56%
